Experiments:
[1] = target: T1, Lactococcus lactis heme-responsive transcription factor HrtR, SEQ ID NO: 1 (in E. coli MG1655, HrtR+ChuA+PhrtAB-luxCDABE) (Lactococcus cremoris, UniProt A2RIY0); experiment: Hemin response of E. coli MG1655 with HrtR+ChuA+PhrtAB-luxCDABE (luminescence); type: cell-based
T1 sequence (A2RIY0 1-189): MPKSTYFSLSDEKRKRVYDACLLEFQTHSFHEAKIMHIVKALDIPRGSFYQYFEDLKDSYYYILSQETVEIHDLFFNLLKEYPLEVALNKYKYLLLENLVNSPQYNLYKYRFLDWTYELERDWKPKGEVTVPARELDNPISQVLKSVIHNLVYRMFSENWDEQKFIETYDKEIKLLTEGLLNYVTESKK

[2] = target: T2, Lactococcus lactis heme-responsive transcription factor HrtR, SEQ ID NO: 1 (in E. coli MG1655, no ChuA) (Lactococcus cremoris, UniProt A2RIY0); experiment: Hemin response of E. coli MG1655 with HrtR and PhrtAB- or PL(HrtO)-luxCDABE without ChuA (luminescence); type: cell-based
T2 construct: PhrtAB- or PL(HrtO)-luxCDABE reporter
T2 sequence (A2RIY0 1-189): T1 sequence (A2RIY0 1-189)

| Compound | response concentration range ([1]; with ChuA) | time to detectable differences in luminescence ([1]; depending on the concentration of hemin used) | response of gene circuit to extracellular hemin [2] |
| --- | --- | --- | --- |
| C=CC1=C(C)c2cc3[nH]c(cc4nc(cc5[nH]c(cc1n2)c(C)c5CCC(=O)O)C(CCC(=O)O)=C4C)c(C)c3C=C.[Fe+2] [heme] | sub-micromolar range |  |  |
| C=CC1=C(C)c2cc3[nH]c(cc4nc(cc5[nH]c(cc1n2)c(C)c5CCC(=O)O)C(CCC(=O)O)=C4C)c(C)c3C=C.[Fe+3] [hemin] |  | 30 to 60 min | insensitive |
